Assay results as given in patent US10780094B2, “Use of carbonic anhydrase inhibitors for treatment of neurological and psychiatric disorders” (New York University, priority 2016, dated 2020).

How the values were obtained:
[1] = system: caspase 9 in glial cells; test: Caspase-Glo 9 activity after Aβ challenge; assay type: cell-based, human
Procedure: Caspase 9 and caspase 3/7 activation was measured by luminescent assays (Caspase-Glo 9 and caspase-Glo 3/7, Promega, Madison, Wis.), in cells treated with the Aβ peptides in DMEM without FBS. Briefly, 10,000 cells/well were plated in 96 wells plates and incubated for 24 hours with the freshly solubilized Aβ peptides. Caspase-Glo reagent was added to the cell cultures resulting in cell lysis, followed by caspase cleavage of the substrate and generation of a luminescent signal produced by the luciferase reaction. After 40 minutes incubation, the amount of caspase activity was evaluated in a plate-reading luminometer (Synergy HT Multi-Mode Microplate Reader, Biotek, Winooski, Vt.) as described in (Fossati et al., 2012b). To inhibit non-specific background activity, the proteasome inhibitor MG-132 was added to the Caspase-Glo reagent before the experiment as indicated by the manufacturer. In all cases results are expressed as fold-change compared to untreated control cells.

[2] = system: SH-SY5Y cells; test: Cellular ROS (CellROX, DCFDA); assay type: cell-based, human; settings: Aβ42 in the presence or absence of MTZ; 24 hours
Procedure: For the last 30 minutes, the cells were incubated in the experimental medium at 37° C. with 5 μM CellROX Deep Red (Life Technologies) and 1 μg/ml Hoechst Stain (Immunochemistry Technologies, Bloomington, Minn.), as described by the manufacturer, followed by washes. Fluorescence was measured using a FlexStation 3 Multi-Mode Microplate Reader (Molecular Devices, Sunnyvale, Calif.).
10.000 cells of either SH-SY5Y or D3 cells were plated on 96-wells plates. The day after, cells were treated with the peptides and/or the drugs for the established experimental times. CellROX reagent was then added, directly, to the growing media, at a final concentration of 5 μM. 10 μg/mL of Hoescht 333258 was also added to the medium containing the CellROX reagent, in order to dye cell nuclei. Cells were incubated with both CellROX and Hoescht 333258, at 37° C., for 30 min., just before the ending time-point of the treatment. After 30 min., the medium was removed and cells were washed once in PBS 1× at room temperature. […]
Cells were plated on 96-wells microplate fluorescence microtiter (ThermoFisher, Waltham, Mass., US), and treated with peptides and/or drugs on phenol red free medium, with no serum in the case of the SH-SY5Y cells and 1% serum on the D3. […] Fluorescence was measured using a FlexStation (Molecular devices, Sunnyvalem Calif., US).

[3] = system: C57BL/6 mice; test: Intra-hippocampal Aβ40-Q22 injection, immunohistochemistry; assay type: in vivo, mouse
Procedure: Six months old C57BL/6 mice were anesthetized with a mixture of ketamine and xylazine (120 and 10 mg/Kg respectively) i.p. and fixed to a stereotaxic frame (David Kopf Instruments, Tujunga, CaliforniaKopf). The body temperature was maintained stable with the use of a heating pad (Harvard Apparatus, Holliston, Mass.) for the total time of the surgery. A volume of 1 μl of a 10 μM fresh solution of Aβ40-Q22—chosen for its propensity to form toxic oligomers, and not fibrils, in the first few hours after solubilization—(Fossati et al., 2010) in PBS, or the vehicle for control mice, was injected in the hippocampus (Coordinates: AP=−2.7, L=−3.0 and H=−4.0, according to the Atlas of Paxinos and Franklin) at a flow rate of 0.1 μl/min. The needle (Hamilton 701 RN 10 μl syringe, RN needle 30/2″/3S) was left in place for two minutes and then slowly withdrawn. In the cases in which MTZ treatment was administered, mice were injected intraperitoneally with a solution of MTZ (20 mg/kg) 1 h before the Aβ40-Q22 intrahippocampal injection. At the selected time after injections, the animals were sacrificed by trans-cardiac perfusion (medium flow pump, Fisher Scientific 13-876-2, 10 ml/min flow rate) with PBS for 2 minutes followed by 4% paraphormaldehyde for 5 minutes. Brains were then removed from the skull and postfixed in 4% paraphormaldehyde for 2 h at 4° C. […] Brains were then washed in PBS, assembled in a plastic mold with Tissue-Tek O.C.T. compound (Fisher Scientific), and frozen with a mixture of liquid nitrogen and isopenthanol. Serial cryostat sections of 8 μm thickness were collected on positively charged microscope slides (Fisher Scientific) and stored at −80° C. until further immunohistochemical analysis.
For immunohistochemical staining, slices were warmed to RT for 5′ prior to use, rinsed in PBS and blocked with Mouse on Mouse (MOM) blocking reagent (2 drops in 2.5 ml of PBS, Vector Laboratories, Burlingame, Calif.) for 20 minutes. Incubation with the rabbit monoclonal antibody against active caspase-3 (Cell Signaling Technology) was performed overnight at 4° C. in PBS containing 0.1% triton X-100 and 5 mg/ml BSA. The day after, the sections were washed three times with PBS and incubated in Alexa Fluor 488- or 633-conjugated anti-rabbit IgG (Life Technologies; 1:200 in PBST with 5 mg/ml BSA; 1 h at RT), followed by primary anti-Aβ 6E10 (1:200 in PBS+MOM for 2 hours at RT), and by secondary Alexa Fluor 568 anti-mouse IgG. Finally, the slices were washed and the DNA counterstained with TO-PRO (Life Technologies) 1:1000 for 10 min, or with NeuN green neuronal staining (1:100 in PBS for 1 hour, Millipore, Temecula, Calif.). For staining of active microglial cells, tissue sections were incubated with anti IBA1 goat antibody (Abcam, Cambridge, Mass.) 1:200 in PBS containing 0.1% Triton and 5 mg/ml BSA for 1 hour, followed by Alexa Fluor 488 anti-goat IgG (1 hour). After washing, slides were mounted with an aqueous mounting medium (Vector Laboratories). Images were acquired in a Zeiss LSM 510 confocal microscope using 40× or 100× oil lens and processed using Image J and Adobe Photoshop. Images were acquired maintaining constant exposure for all samples across single experiments. For quantifications, stained brain slices corresponding to the injection site area of 3 or more animals were quantified with Image J. The total area of NeuN, caspase 3, Aβ and IBA1 positive cells was quantified and compared between different treatments.

[4] = MTZ IP one hour before peptide injection

CC(=O)/N=c1/sc(S(N)(=O)=O)nn1C [MTZ, methazolamide]
caspase 9 over-activation ([1]; 100 or 300 μM MTZ, 10 μM Aβ42, 24 hours): significantly reduced
caspase 9 activity, drug alone ([1]; MTZ alone in absence of Aβ): did not have any effect
levels of cellular ROS (CellROX) [2]: did not significantly change
activation of caspase-3 induced by Aβ in CA1 neurons ([3]; 20 mg/Kg MTZ IP 1 hour prior to Aβ40-Q22 injection, sacrificed 4 hours after): prevented
Aβ staining in the injected hemisphere ([3]; Aβ in the presence or absence of MTZ, FIG. 9A): similarly increased
active-caspase 3 staining in IBA1- and Aβ-positive microglia ([3]; MTZ IP before Aβ injection): notably lower
caspase activation in the vicinity of the injection site [3, 4]: significantly reduced
loss of NeuN immunoreactivity in the vicinity of the injection site [3, 4]: significantly reduced
brain entry after systemic administration ([3]; inferred from efficacy after IP dosing): can enter the mouse brain
